Assay results published in patent publication US20260297060A1, “COMPOUNDS FOR THE DEGRADATION OF MUTANT BRAF” (C4 THERAPEUTICS, INC., priority 2023, published 2026).
Read-outs that look alike come from different tables or passages of the source.

Columns and labels:
[1] = Example 9 pharmacokinetics assay for efficacy study Part I and II (plasma, liver); format: in vivo, BALB/c nude mice; conditions: mouse, po, 10 mg/kg, p.o., BID × 14 days, 6 h following treatment, ± SEM
Description: For efficacy study Part I, agents were tested in the A375 human melanoma xenografts. Compound 218 and Compound 157 were administered to BALB/c nude mice bearing A375 xenografts from day 0 and dosed twice a day (BID) for 14 days. Compound 218 and Compound 157 were dosed at 10 mg/kg via p.o.. Dabrafenib was administered from day 1 daily (QD) for 14 days and dosed at 100 mg/kg via p.o..
For efficacy study Part II, agents were tested in the A375 human melanoma xenografts model. Compound 133, Compound 144 and Compound 198 were administered to BALB/c nude mice bearing A375 xenografts from day 0 and dosed twice a day (BID) for 14 days. Compound 133, Compound 144 and Compound 198 were dosed at 10 mg/kg via p.o..
(§1) The plasma samples were collected at predetermined time points for PK analysis. The mice were euthanized at predetermined time points post the treatment. The blood samples were collected into the 1.5 mL Eppendorf tubes containing 15 μL of 0.5 M EDTA-K2. And then the anticoagulant blood samples were centrifuged at 2,500 g at 4° C. for 15 minutes. The plasma samples were separated into 2 aliquots. The 1st was used for PK analysis, and the 2nd served as backup. The samples were stored at −80° C. before bioanalysis.
(§2) Liver samples were collected at predetermined time points for PK analysis. The left lobe of the liver was dissected out and split into 2 parts. The 1st part was used for PK analysis and the 2nd part served as the backup for the study. The samples were transferred into pre-labeled tubes and quickly froze in liquid nitrogen within 2 minutes after dissection. The samples were stored at −80° C. before bioanalysis.
The harvested plasma and liver samples were processed for pharmacokinetics analysis by LC-MS/MS with a concentration range of 1.00-1,000 ng/mL for Dabrafenib in plasma and liver homogenate, 10.0-10,000 ng/mL for Compound 218, Compound 157, Compound 133, Compound 144 and Compound 198 in plasma and liver homogenate.

[2] = Example 9 pharmacokinetics assay for the PK and PD study Part I, II and III (plasma, tumor, liver); format: in vivo, BALB/c nude mice; conditions: mouse, po, 10 mg/kg, p.o., single dose, ± SEM
Description: For the PK and PD study Part I, agents were administered to BALB/c nude mice bearing A375 human melanoma xenografts tumors. Dabrafenib, Compound 218 and Compound 157 were dosed via p.o. once on day 1. Dabrafenib was dosed at 100 mg/kg. Compound 218 and Compound 157 were dosed at 10 mg/kg.
For the PK and PD study Part II, agents were administered to BALB/c nude mice bearing A375 human melanoma xenografts tumors. Compound 133, Compound 144 and Compound 198 were dosed at 10 mg/kg via p.o. once on day 1.
For the PK and PD study Part III, agent was administered to BALB/c nude mice bearing A375 human melanoma xenografts tumors. Compound 204 were dosed at 10 mg/kg via p.o. once on day 1.
as §1
The tumor samples were collected at predetermined time points for PK and WB analysis. The tumor was dissected out and split into 3 parts. The 1st part was used for PK analysis, the 2nd part was used for WB analysis and the last one served as backup for study. The samples were transferred into pre-labeled tubes and quickly froze in liquid nitrogen within 2 minutes after dissection. The samples were stored at −80° C. before bioanalysis.
as §2
The harvested plasma, tumor and liver samples were processed for pharmacokinetics analysis by LC-MS/MS with a concentration range of 5.00-10,000 ng/mL for Compound 218, Compound 157 and Compound 133 in plasma, 0.500-1,000 ng/ml for Compound 218 in liver and tumor homogenate, 0.200-400 ng/mL for Compound 157, Dabrafenib and Compound 133 in liver and tumor homogenate, 0.500-1000 ng/mL for Dabrafenib and Compound 204 in plasma, 0.200-200 ng/mL for Compound 204 in liver and tumor homogenate, 20.0-20,000 ng/mL for Compound 144 and Compound 198 in plasma, 1.00-1,000 ng/mL for Compound 144 and Compound 198 in liver and tumor homogenate.

[3] = liver, read-out: Mean Concentration in Liver
[4] = plasma, read-out: Mean Concentration in Plasma
[5] = tumor, read-out: Mean Concentration in Tumor

| concentration at 6 h [1, 3] [ng/g] | concentration at 6 h [1, 4] [ng/mL] | concentration at 6 h [2, 3] [ng/g] | concentration at 12 h [2, 3] [ng/g] | concentration at 1 h [2, 4] [ng/mL] | concentration at 6 h [2, 4] [ng/mL] | concentration at 12 h [2, 4] [ng/mL] | concentration at 24 h [2, 4] [ng/mL] | concentration at 1 h [2, 5] [ng/g] | concentration at 6 h [2, 5] [ng/g] | concentration at 12 h [2, 5] [ng/g] | concentration at 24 h [2, 5] [ng/g] | Structure (SMILES) |
| --- | --- | --- | --- | --- | --- | --- | --- | --- | --- | --- | --- | --- |
| 1910 ± 169 | 5070 ± 270 | 2030 ± 179 | 503 ± 207 | 8880 ± 604 | 3460 ± 69.8 | 733 ± 348 | 23.4 ± 5.56 | 764 ± 122 | 686 ± 6.23 | 316 ± 172 | 41.7 ± 26.4 | Cn1nc(N2CCC(=O)NC2=O)c2cc(F)c(N3CC4(CC(N5CCC6(CC5)C[C@@H](n5cnc7ccc(Oc8c(F)ccc(NS(=O)(=O)N9CC[C@@H](F)C9)c8C#N)cc7c5=O)CO6)C4)C3)cc21 [Compound 133, (3R)-N-[2-cyano-3-[3-[(3R)-8-[2-[3-(2,4-dioxohexahydropyrimidin-1-yl)-5-fluoro-1-methyl-indazol-6-yl]-2-azaspiro[3.3]heptan-6-yl]-1-oxa-8-azaspiro[4.5]decan-3-yl]-4-oxo-quinazolin-6-yl]oxy-4-fluoro-phenyl]-3-fluoro-pyrrolidine-1-sulfonamide] |
| 2470 ± 252 | 14700 ± 2220 | 1890 ± 584 | 873 ± 234 | 11600 ± 2260 | 6220 ± 1880 | 1240 ± 395 | 143 ± 15.4 | 946 ± 172 | 1180 ± 406 | 616 ± 127 | 183 ± 45.4 | CO[C@@H]1CCN(S(=O)(=O)Nc2ccc(F)c(Oc3ccc4ncn([C@H]5COC6(CCN(C7CC8(C7)CN(c7cc9c(cc7F)c(N7CCC(=O)NC7=O)nn9C)C8)CC6)C5)c(=O)c4c3)c2C#N)C1 [Compound 144, (3R)-N-[2-cyano-3-[3-[(3R)-8-[2-[3-(2,4-dioxohexahydropyrimidin-1-yl)-5-fluoro-1-methyl-indazol-6-yl]-2-azaspiro[3.3]heptan-6-yl]-1-oxa-8-azaspiro[4.5]decan-3-yl]-4-oxo-quinazolin-6-yl]oxy-4-fluoro-phenyl]-3-methoxy-pyrrolidine-1-sulfonamide] |
| 2450 ± 217 | 12500 ± 745 | 2000 ± 132 | 1320 ± 233 | 14700 ± 2000 | 14700 ± 1560 | 5420 ± 1400 | 161 ± 40.1 | 1460 ± 376 | 1990 ± 120 | 1470 ± 329 | 183 ± 137 | CO[C@H]1CCN(S(=O)(=O)Nc2ccc(F)c(Oc3ccc4ncn([C@H]5COC6(CCN(C7CC8(C7)CN(c7cc9c(cc7F)c(N7CCC(=O)NC7=O)nn9C)C8)CC6)C5)c(=O)c4c3)c2C#N)C1 [Compound 157, (3S)-N-[2-cyano-3-[3-[(3R)-8-[2-[3-(2,4-dioxohexahydropyrimidin-1-yl)-5-fluoro-1-methyl-indazol-6-yl]-2-azaspiro[3.3]heptan-6-yl]-1-oxa-8-azaspiro[4.5]decan-3-yl]-4-oxo-quinazolin-6-yl]oxy-4-fluoro-phenyl]-3-methoxy-pyrrolidine-1-sulfonamide] |
| 3320 ± 479 | 7640 ± 799 | 2240 ± 416 | 1020 ± 177 | 2430 ± 91.7 | 2670 ± 117 | 1700 ± 172 | 573 ± 94.2 | 441 ± 38.8 | 1120 ± 28.5 | 776 ± 107 | 383 ± 128 | CCN(C)S(=O)(=O)Nc1ccc(F)c(Oc2ccc3ncn(C4CC5(CCN(C6CC7(CCN(c8cc9c(cc8F)c(N8CCC(=O)NC8=O)nn9C)CC7)C6)CC5)C4)c(=O)c3c2)c1C#N (stereo not drawn) [Compound 198, 6-[2-cyano-3-[[ethyl(methyl)sulfamoyl]amino]-6-fluoro-phenoxy]-3-[7-[7-[3-(2,4-dioxohexahydropyrimidin-1-yl)-5-fluoro-1-methyl-indazol-6-yl]-7-azaspiro[3.5]nonan-2-yl]-7-azaspiro[3.5]nonan-2-yl]-4-oxo-quinazoline] |
